This is an account of results in patent publication US7019132B2, “Porphyrin derivatives” (Kostarworld Co., Ltd., priority 2003, dated 2006).

The subject of data set [1] is EMT6 cells. Description: Annexin V/PI staining for cell apoptosis. The format is cell-based, mouse. To be noted: PDT treatment group 0.2 μg/hr; above 90% of cells survived in control. The source says: FIG. 4 presents the staining result with Annexin V/PI staining to study the action mechanism of cell apoptosis.
For data set [2], the system named is mouse EMT6 cell line.
Method: (§2) Breast cancer cell line (EMT6; 1×10^6 cells/mouse) was cultured in culture medium (DMEM+10% FBS+100 units of Penicillin+100 μg streptomycin), treated with 0.25% Trypsin-EDTA to collect the cells and the number of cells was counted using by Trypan blue staining reagent.
(§3) Each 3 ml of cells was added to 35 mm of culture dish in the concentration of 2×10^5 cells/ml and incubated in 5% CO2 incubator for 24 hrs in order that the cells be arranged to be made a mono-layer.
(§4) Photosensitizing substance was added thereto and irradiation was subjected thereon at the strength of 1.2 J using by halogen lamp. The culture dishes were transferred to incubators and incubated.
(§5) The cell cytotoxicity caused by PDT was analyzed by MTT assay and the morphology of cells was observed by microscopy.
(§6) Conventional photosensitizer, i.e., photogem®, was used as a comparative control group and several factors such as the concentration of test samples, the irradiation strength of light and the absorption time of samples etc were modified in the present experiment.
The test system of the next data set is EMT6 tumor. Description: In vivo PDT assay, EMT6 breast cancer transplanted to BALB/c mouse. As to the method: DH-1-180-3 as a test sample of the present invention and photofrin (photogem®) as a control group were used in test.
The tumor size of each mice was determined using by caliper at the interval of 2 or 3 days and the survival ratio of the mice according to tumor was also determined.

Data set [3] has as its system mouse EMT6 cell line. Description: Cell cytotoxicity caused by PDT on EMT6 cell line, MTT assay. For orientation: Tetrazolium dyes change colour on reduction, which living cells bring about.
Method: as §2, §3, §4, §5, §6
Data set [4] can be described thus: Acute toxicity test on ICR mice. Type of data set: in vivo. To be noted: i.p. 20, 10 and 1 mg/kg, observed 24 hrs. As to the method:
(§1) The acute toxicity tests on ICR mice (mean body weight 25±5 g) and Sprague-Dawley rats (235±10 g) were performed using the compounds 1 and 10. Each group consisting of 3 mice or rats was administrated intraperitoneally with 20 mg/kg, 10 mg/kg and 1 mg/kg of test compounds or solvents (0.2 ml, i.p.), respectively and observed for 24 hrs.

Data set [5] has as its system EMT6 cells.
For a further data set, the system named is EMT6 cell. Description: MMP (mitochondrial membrane potential), JC-1 dye staining, FACS analysis. Type of data set: cell-based, mouse. The note with it: after PDT, JC-1 staining. The text has this: FIG. 8 depicts the diagram determining MMP (mitochondrial membrane potential) within EMT6 cell after the treatment of PDT and JC-1 dye staining by FACS analysis.
A general note: In flow cytometry, cells or beads pass a laser one at a time.

For data set [6] the following is noted: λexcitation 508 nm, toluene, air-saturated, 21° C.
Method: The transforming activity of the target compounds into singlet oxygen state was measured by following methods.
The experimental assay was performed under air-saturated condition (99.999% ultra-purified gas) using toluene (Merck Co. HPLC grade) as a solvent, in the oxygen concentration in the solution of 2.1×10^−3 M at 21° C.
Data set [7] in a line: Acute toxicity test on Sprague-Dawley rats. Type of data set: in vivo. The note with it: i.p. 20, 10 and 1 mg/kg, observed 24 hrs. The method, then:
as §1

Consider “methyl pheophorbide α triethylene glycol ester [DH-1-180-3]”, for which, in the data set on EMT6 cells [1], the dead cells is given as 50 to 60%. For the same substance, in the data set with mouse EMT6 cell line [2], the “cell cytotoxicity without light” value is recorded as “do not show cell cytotoxicty” and the “intensity of irradiating light for strongest cytotoxicity / optimum” value was found to be 1.2 J. Besides, the “growing ratio of tumor” value with EMT6 tumor (0.4 and 0.8 mg/kg/mouse, light 1.2 J 3 h later, vs control and photofrin (2 mg/kg/mouse)) was “remarkably decreased”. Moreover, in the data set on EMT6 tumor (PDT treatment group vs control group), the survival ratio entry was “extended”. The same substance returned an optimum absorption time in the data set on mouse EMT6 cell line [3] (0.4 μg/ml, 1.2 J) of 1 h. In addition, the LD100 with mouse EMT6 cell line [3] (EMT6, MTT assay, with light irradiation) amounted to 0.4 µg. Further, the “optimum concentration of photosensitizer used in PDT” value in the data set on mouse EMT6 cell line [3] (absorption 1 hour, 1.2 J, analysis at 24 hrs) turned out to be 0.4 µg/mL. Besides, in [4], the acute toxicity findings entry is “no treatment-related effects on mortality, clinical signs, body weight changes and gross findings”. Besides, in the data set with EMT6 cells [5], the “concentration showing the strongest cell cytotoxicity” value was “at least 0.4 μg” and the “duration time showing the strongest cell cytotoxicity” value was “at least 60 minutes”. Besides, the “MMP (mitochondrial membrane potential)” value with EMT6 cell was “remarkably decreased”. Further, the “transformed photon yield (singlet oxygen state)” value in data set [6] is given as 0.60 (5%). Also, the acute toxicity findings entry in [7] is “no treatment-related effects on mortality, clinical signs, body weight changes and gross findings”.
